We go through 1 molecule from patent publication US8257915B2, “Farnesyltransferase inhibitors for treatment of laminopathies, cellular aging and atherosclerosis” (Progeria Research Foundation, Inc., priority 2002, dated 2012).

“Also recorded” adds a separate entry of the source.

One data set concerns BCR/ABL. Conditions: cell culture and mouse models; cited from earlier work.
For data set [1], the system named is several human cancer cell lines. The conditions noted are these: cited from earlier work.
In data set [2] the test system is HGPS fibroblast lines AG06917, AG11513, AG11498. In words: Nuclear blebbing of HGPS skin fibroblasts treated with FTI. The data set is classed as cell-based, human. Conditions: once daily 0, 0.5, 1.0, 2.0 μM for three days; p<0.0001. As for the experimental part: Cell Culture. Cell lines used were the normal human fibroblast line, AG06299, and HGPS fibroblast lines: AG06917, AG11513, and AG11498 (obtained from the NIA Aging Cell Culture Repository, Coriell Institute for Medical Research, Camden, N.J.). Fibroblasts were cultured in minimal essential medium (MEM; Invitrogen/Gibco) supplemented with 15% FBS (HiClone), 2 mM L-glutamine, penicillin (50 U/ml) and streptomycin ([…]). HeLa and HEK-293 cell lines were cultured in DMEM (Invitrogen/Gibco) supplemented with 10% fetal bovine serum and antibiotics.
(§1) FTI Treatment. At the time of transient transfection, HeLa cells were treated with one dose of 0, 0.5, 1.0, or 2.0 μM of the selective FTI lonafarnib [Sarasar, SCH66336, (Schering-Plough)]. HEK-293 cells were treated with one dose of 0, 1, 2, 5, or 10 μM of the selective FTI L-744832 (Biomol). […] These FTIs have the same mechanism of action and can be used interchangeably to inhibit protein farnesylation in vitro. However, only lonafarnib is a clinical candidate. Normal and HGPS fibroblasts were treated with one daily dose of 0, 0.5, 1.0, or 2.0 μM of lonafarnib for 3 days.
GFP Localization and Fluorescence Microscopy. Forty-eight hours following transient transfection, the HeLa and HEK-293 cells were visualized for GFP localization using an LSM510 confocal microscope (Zeiss). […]

In a further data set the test system is protein farnesylation. The conditions noted are these: Phase I clinical trial; cited from earlier work.
Data set [3] has as its system human brain, lung, prostate, pancreas, colon, and bladder tumor xenografts. The conditions noted are these: nude mice; cited from earlier work.
The conditions of data set [4]: Phase III trials, including trials involving children; cited from earlier work.
Data set [5] deals with HeLa cells transfected with wild-type lamin A-CSIM, progerin-CSIM, progerin-SSIM or progerin-CSIL. In words: Nuclear blebbing and GFP localization in transiently transfected HeLa cells treated with FTI. The data set is classed as cell-based. The conditions noted are these: 48 hours. The procedure:
Transient Transfections. Approximately 25,000 cells were plated per chamber of 4-chamber slides (Lab-Tek, Nalge Nunc International, #154526). After twenty-four hours, HeLa and HEK-293 cell lines were transiently transfected with 0.8 μg of each construct using LIPOFECTAMINE®2000 transfection reagent (Invitrogen) under standard conditions.
as §1
GFP Localization and Fluorescence Microscopy. Forty-eight hours following transient transfection, the HeLa and HEK-293 cells were visualized for GFP localization using an LSM510 confocal microscope (Zeiss). Following three-day treatment with lonafarnib, HGPS fibroblasts were washed two times with phosphate-buffered saline (PBS) (pH 7.2) and fixed for 10 minutes at room temperature with 1% paraformaldehyde in PBS. Following three washes with PBS, the cells were permeabilized for 5 minutes at room temperature with 0.5% Triton X-100 in PBS and blocked with 5% horse serum for 30 minutes at room temperature. Cells were then incubated for one hour at room temperature with the primary antibody diluted in blocking solution, a […] mouse anti-human lamin A/C at 1:10 (mAb3211, Chemicon). Three more washes with PBS were then followed by incubation with the secondary antibody, Alexa 488-conjugated donkey anti-mouse IgG (Molecular Probes), for 45 minutes and three additional PBS washes. Slides were then mounted with mounting medium containing DAPI (Vector Laboratories).
Morphometric Analysis. To examine the overall percentage of blebbed cells in cells with different amounts and lengths of FTI treatment, 200 nuclei were classified as either blebbed, if they contained two or more lobulations, or not blebbed, as previously described (Goldman et al., Proc. Natl. Acad. Sci. USA 101:8963-8968, 2004). These classifications were done by three independent observers, all blinded to the specifics of the cells being examined, followed by averaging three independent data sets. Armitage's trend test (Armitage, Biometrics 11:375-386, 1955) was used to test for a dose-dependent response for each cell type.

For the molecule `NC(=O)N1CCC(CC(=O)N2CCC([C@H]3c4ncc(Br)cc4CCc4cc(Cl)cc(Br)c43)CC2)CC1` [lonafarnib], the anti-leukemic activity result with BCR/ABL was “demonstrated”. Moreover, the “proliferation of several human cancer cell lines” value in data set [1] is reported as “inhibit proliferation”. Further, in data set [2], the “nuclear blebbing in HGPS fibroblasts” value was “significant dose-dependent reduction; also recorded: reversion of the nuclear blebbing”. Moreover, in the data set with protein farnesylation, the “protein farnesylation in vivo” value was “inhibits” and the tolerability result was “generally well tolerated”. The “activity against human tumor xenografts” value in data set [3] is listed as “active”. Moreover, in data set [4], the tolerability entry is on record as “well tolerated”. Besides, in data set [5] (0 to 2.0 μM), the “change of nuclear blebbing, wild-type lamin A-CSIM” value was “unchanged; also recorded: does not change significantly” and the “percentage of nuclear blebbing, wild-type lamin A-CSIM” value is given as “approximately 5%”. The “nuclear blebbing, progerin-CSIM” value in data set [5] (2 μM single dose at transfection) is “approaching normal blebbing percentages; also recorded: almost totally abolishes”. Besides, in data set [5] (2 μM), the “localization of progerin, progerin-CSIM” value is “relocalization of progerin into nucleoplasmic aggregates”. The “dose response of nuclear blebbing, progerin-CSIM” value in data set [5] (single dose 0, 0.5, 1.0, 2.0 μM, p<0.0001) is “dramatic dose-dependent response”. Moreover, in data set [5] (up to 2 μM), the “nuclear blebbing, progerin-CSIL” value is reported as “completely resistant; also recorded: resistant to FTI treatment; also recorded: resistant to inhibition of farnesylation” and the “phenotype, progerin-SSIM” value was “no difference; also recorded: does not change significantly”.
